Here are results for 4 compounds from patent publication US20240409543A1, “PYRROLOPYRAZOLE SPIRO COMPOUND” (CHIA TAI TIANQING PHARMACEUTICAL GROUP CO., LTD., priority 2021, published 2024).

Structures are written as SMILES.

The test system of data set [1] is human pancreatic cancer MIA PaCa-2 cell line subcutaneous xenograft. The data set can be described thus: In-vivo inhibition of MiaPaCa-2 subcutaneous xenograft tumor. The arrangement: species or system female BALB/c nude mouse. The method, then:
To evaluate the antitumor effect of each test drug in a female BALB/c nude mouse animal model with subcutaneous xenograft of a human pancreatic cancer MIA PaCa-2 cell line.
MIA PaCa-2 cells were cultured in a DMEM medium containing 2.5% HS and 10% fetal bovine serum. MIA PaCa-2 cells in the logarithmic growth phase were collected and resuspended in PBS to achieve an appropriate concentration for subcutaneous tumor inoculation in nude mice.
The experimental mice were inoculated subcutaneously on the right dorsal side with 5×10^6 MIA PaCa-2 cells (the cells were resuspended in a 1:1 mixture of PBS and matrigel), with 0.1 mL per mouse. Tumor growth was observed regularly. Once the tumors reached an average volume of approximately 125 (100-150) mm^3, the mice were randomly divided into groups for administration based on the tumor size and body weight.
After the start of the administration, the body weight and tumor size of the mice were measured twice a week. Calculation formula for tumor volume: Tumor volume (mm^3)=1/2×(a×b^2) (where a represents long diameter and b represents short diameter).

Data set [2] is described as follows: In-vivo pharmacokinetic study in rats. The following applies: male, SD, rat, plasma. The method, then:
This experiment was intended to evaluate the pharmacokinetic behavior of each compound after a single intravenous injection and intragastric administration and to investigate the bioavailability after intragastric administration.
Male SD rats aged 7 to 10 weeks were selected. The rats were fasted for at least 12 h before administration and were allowed to feed again 4 h after administration, with free access to water throughout the experiment.
On the day of the experiment, animals in the intravenous group were given the corresponding compound by a single injection via the tail vein at an administration volume of 5 mL/kg; the oral group was given the corresponding compound by a single intragastric administration at an administration volume of 10 mL/kg. The animals were weighed before administration, and the administration volume was calculated based on their body weight. Sample collection time points: 0.083 h (injection group), 0.25 h, 0.5 h, 1 h, 2 h, 4 h, 6 h, 8 h, and 24 h. At each time point, approximately 200 μL of whole blood was collected via the jugular vein, which was then used to prepare plasma for concentration determination by high performance liquid chromatography-tandem mass spectrometry (LC-MS/MS).
All animals were euthanized with CO2 anesthesia after the PK samples were taken at the last time point. The plasma concentrations were processed using a non-compartmental model of the pharmacokinetic software WinNonlin™ Version 6.3 (Pharsight, Mountain View, CA), and the pharmacokinetic parameters were calculated using a linear log-trapezoidal method.

Data set [3] has as its system MiaPaCa-2 cells (MIAPACA2_PANCREAS). The data set can be described thus: Anti-proliferation experiment on tumor cells with KRAS mutations, MiaPaCa-2 (3D CellTiter-Glo). The data set is classed as cell-based. The following applies: Homo sapiens, MIA PaCa-2, 72 h, 3 days incubation with compound, ultra-low attachment plate. The text has this: Cell culture medium, penicillin/streptomycin antibiotics purchased from Wisent, and fetal bovine serum purchased from Biosera; 3D CellTiter-Glo (chemiluminescence detection reagent for cell viability) reagent purchased from Promega; Cell lines purchased from Nanjing Cobioer Biosciences Co., Ltd. and Wuhan Procell Life Science & Technology Co., Ltd; and Envision multimode microplate reader (PerkinElmer).
Different types of tumor cells were each seeded in an ultra-low attachment 96-well U-bottom plate, with 80 μL of cell suspension per well. The cell plate was incubated in a CO2 incubator overnight.
Each test compound was diluted in a 5-fold gradient to the 9th concentration (i.e., from 2 mM to 5.12 nM or from 200 μM to 0.512 nM) using a multi-channel pipette, with duplicate wells set up. 78 μL of medium was added to an intermediate plate, and the serially diluted compound was transferred to the corresponding wells of the intermediate plate at 2 μL/well. The mixture was mixed well and then transferred to the cell plate at 20 µL/well. The concentration of the compound transferred to the cell plate ranged from 10 μM to 0.0256 nM or from 1 μM to 0.00256 nM. The cell plate was then incubated in a CO2 incubator for 3-6 days.
The chemiluminescence detection reagent for cell viability was added to the cell plate at 100 μL/well, and the luminescence signals were stabilized by incubation for 10 min at room temperature. Readings were taken using the multimode microplate reader.
The original data were converted to inhibition rates and then the IC50 values were obtained by curve fitting using a four-parameter method (obtained from the “log(inhibitor) vs. response—Variable slope” model in GraphPad Prism). Table 2 illustrates the inhibitory activity of the compounds disclosed herein against the proliferation of different types of tumor cells.
For orientation: Cellular ATP, detected with luciferase, serves as a proxy for viable cell number.

The mark [4] stands for this setting: Day 12, 30 mg/kg oral once daily.
Setting [5] is: Day 39, 30 mg/kg oral once daily.
[6] abbreviates: iv, injection (tail vein), dose 2 mg/kg.
Setting [7] is: oral administration, dose 20 mg/kg.

The AUC(0-t) is exposure summed from dosing to a finite time, without extrapolation to infinity. A higher AUC(0-t) goes with high exposure. In general, clearance refers to the rate of elimination divided by the concentration. High values mean efficient removal, low ones inefficient removal. The term bioavailability denotes dose-corrected exposure relative to a reference, in per cent. A high value points to good availability. One may read the Cmax as the highest concentration seen after dosing. As usually defined, the IC50 is the concentration that inhibits the measured activity by half. For `Cc1nc(N2CCC3(CC2)Cn2nccc2C3N)c(CO)nc1Sc1ccnc(N)c1Cl` (stereo not drawn) [Compound 1], the Mean tumor volume in data set [1] (setting [4]) is recorded as 129.20 mm^3. Moreover, in data set [1] (setting [5]), the “Inhibition rate (%) at day 39” value is 63.1% and the Mean tumor volume is 278.34 mm^3. In data set [2] (setting [6]), this compound had an AUC(0-t) of 4.05 µM·h and a clearance of 17.3 mL/min/kg. Further, in data set [2] (oral 20 mg/kg vs injection 2 mg/kg), the bioavailability came to 98%. In data set [2] (setting [7]), the AUC(0-t) was found to be 39.7 µM·h and the peak concentration (Cmax) is 9.73 µM. Further, in data set [3], the IC50 is 22.6 nM.

As to `CNc1nccc(Sc2nc(CO)c(N3CCC4(CC3)Cn3nccc3C4N)nc2C)c1Cl` (stereo not drawn) [Compound 2], the figures for the Mean tumor volume in data set [1] (setting [4]) and in data set [1] (setting [5]) were 129.17 mm^3 and 248.09 mm^3, respectively. For the same compound, the “Inhibition rate (%) at day 39” value in data set [1] (setting [5]) stood at 66.6%. In addition, the IC50 in data set [3] came to 24.4 nM.

Consider `Cc1nc(N2CCC3(CC2)Cn2nccc2C3N)c(CO)nc1Sc1cccnc1C(F)(F)F` (stereo not drawn) [Compound 4], for which the IC50 in data set [3] amounted to 56.9 nM.

Regarding `Cc1nc(N2CCC3(CC2)Cn2nccc2C3N)c(CO)nc1Sc1ccnc(N)c1F` (stereo not drawn) [Compound 6], the IC50 in data set [3] stood at 62.1 nM.
